Article PMC13422867, “An orally available PfPKG inhibitor blocks Plasmodium’s infection of the liver” (PLOS Pathogens, 2026)

How the values were obtained:
[1] = system: primary simian hepatocytes; assay: Cellular cytotoxicity, hepatocyte nuclear counts; format: cell-based
From the text: (§1) Primary cryopreserved hepatocytes were selected based on host-parasite compatibility: primary simian hepatocytes (lot OQB) for P. cynomolgi and human hepatocytes (lot BGW) for P. falciparum (BioIVT Inc., Baltimore, MD, USA). Cells were thawed according to the manufacturer’s protocol and seeded into 384-well collagen-coated assay plates (Greiner Bio-One, Monroe, NC, USA) using InVitroGro CP plating medium (BioIVT). Seeding densities were optimized for uniform monolayer formation, and hepatocytes were allowed to adhere for 24–48 hours before infection. Sporozoites were added at a 1:1.1 hepatocyte-to-sporozoite ratio within 48 hours post-seeding. Automated robotic systems were used for media changes and compound additions to ensure assay consistency and minimize variability associated with manual pipetting.
(§2) Test compounds (PfPKG inhibitors) and assay drug controls (KDU-691 and tafenoquine) were solubilized in DMSO or PBS and serially diluted into 8- or 12-point, 2- or 3-fold series, achieving final assay concentrations ranging from 20 µM to 0.019 µM. Compounds were introduced using a calibrated pin tool controlled by robotic arms (V&P Scientific), ensuring a 1:1000 dilution into assay wells. Media were replenished daily with fresh drug-containing HCM. Compounds were added 1-hour post-infection (p.i.) (day 0) and administered daily for 3 days. Cells were fixed on day 6 p.i. of P. falciparum culture and day 8 for P. cynomolgi infected culture, coinciding with liver stage schizont maturation.
(§3) High-content imaging was performed using the Operetta CLS system (Revvity) and image analysis was performed with Harmony software version 4.9 (Revvity, Waltham, MA, USA). Images were acquired at 10x or 20x magnification using DAPI and TRITC fluorescence channels. Following the established protocol, parasites were classified as hypnozoites or schizonts based on fluorescence intensity (mean and maximum), morphological features (cell roundness and size), and segmentation criteria. Hepatocyte nuclei were identified using Hoechst 33342 staining. Background signal was captured in uninfected, stained wells and subjected to the same parasite detection algorithm. Estimate erroneous parasite counts were then subtracted from infected well counts. Hepatocyte viability was determined by quantifying nuclear counts per well using Hoechst stain intensity thresholds. […] An in-house built Python-based image analysis script identified parasite objects using predefined fluorescence intensity thresholds. […] Parasite size was quantified by calculating the average object area (µm²) of validated parasite structures per well. […] Dose-response inhibition and IC50 were calculated relative to in-plate negative controls (DMSO-treated wells). […]

[2] = system: primary human hepatocytes; assay: Cellular cytotoxicity, hepatocyte nuclear counts; format: cell-based; settings: cellular cytotoxicity
From the text: as §1
Test compounds (PfPKG inhibitors) and assay drug controls (KDU-691 and tafenoquine) were solubilized in DMSO or PBS and serially diluted into 8- or 12-point, 2- or 3-fold series, achieving final assay concentrations ranging from 20 µM to 0.019 µM. […]
as §3, with “Hepatocyte nuclei were identified using Hoechst 33342 staining. Background signal was captured in uninfected, stained wells and subjected to the same parasite detection algorithm. Estimate erroneous parasite counts were then subtracted from infected well counts.” left out

[3] = system: P. falciparum sporozoites; assay: Sporozoite infection of primary human hepatocytes, high-content imaging; format: cell-based, Plasmodium falciparum
Method: Liver stage antimalarial activity was evaluated using sporozoites from P. falciparum (NF54 strain) and P. cynomolgi bastianellii (B strain). P. falciparum-infected Anopheles stephensi mosquitoes were reared at WRAIR, while P. cynomolgi-infected Anopheles dirus mosquitoes were obtained from the Armed Forces Research Institute of Medical Sciences (AFRIMS), Thailand. Sporozoites were isolated by dissecting salivary glands under sterile conditions, followed by gentle mechanical disruption. Freshly isolated sporozoites were immediately used for hepatocyte infection. […]
(§4) Cells were fixed using 4% paraformaldehyde for 20 minutes at room temperature, followed by three PBS washes, and stored at 4°C until further processing. Parasite detection was performed using species-specific primary antibodies, with P. cynomolgi parasites labeled using a mouse monoclonal anti-Plasmodium GAPDH antibody (1.6 μg/mL, European Malaria Reagent Repository) and P. falciparum parasites detected using a rabbit polyclonal anti-PfHSP70 antibody (1:70 dilution, LS Bio, USA). […]
(§5) High-content imaging was performed using the Operetta CLS system (Revvity) and image analysis was performed with Harmony software version 4.9 (Revvity, Waltham, MA, USA). Images were acquired at 10x or 20x magnification using DAPI and TRITC fluorescence channels. […]

P. cynomolgi hypnozoite = assay: Hypnozoite formation in primary simian hepatocytes, high-content imaging; format: cell-based, Plasmodium cynomolgi
Method: (§6) Liver stage antimalarial activity was evaluated using sporozoites from P. falciparum (NF54 strain) and P. cynomolgi bastianellii (B strain). P. falciparum-infected Anopheles stephensi mosquitoes were reared at WRAIR, while P. cynomolgi-infected Anopheles dirus mosquitoes were obtained from the Armed Forces Research Institute of Medical Sciences (AFRIMS), Thailand. Sporozoites were isolated by dissecting salivary glands under sterile conditions, followed by gentle mechanical disruption. Freshly isolated sporozoites were immediately used for hepatocyte infection.
as §1
as §2, with “Compounds were added 1-hour post-infection (p.i.) (day 0) and administered daily for 3 days. Cells were fixed on day 6 p.i. of P. falciparum culture and day 8 for P. cynomolgi infected culture, coinciding with liver stage schizont maturation.” left out
as §4
as §5, with “channels. Following the established protocol, parasites were classified as hypnozoites or schizonts based on fluorescence intensity (mean and maximum), morphological features (cell roundness and size), and segmentation criteria.” for “channels.”

P. cynomolgi schizont = assay: Schizont formation in primary simian hepatocytes, high-content imaging; format: cell-based, Plasmodium cynomolgi
Method: as §6, §1
as §2, with “Compounds were added 1-hour post-infection (p.i.) (day 0) and administered daily for 3 days. Cells were fixed on day 6 p.i. of P. falciparum culture and day 8 for P. cynomolgi infected culture, coinciding with liver stage schizont maturation.” left out
as §4
as §5, with “channels. Following the established protocol, parasites were classified as hypnozoites or schizonts based on fluorescence intensity (mean and maximum), morphological features (cell roundness and size), and segmentation criteria.” for “channels.”

P. falciparum TM90_C2B = assay: Asexual blood stage growth inhibition, SYBR Green I, 72 h; format: cell-based; settings: Plasmodium falciparum, mean (standard error) of 3 biological replicates
Method: (§7) Asexual blood stage P. falciparum strains, including 3D7 and drug-resistant field isolates, were cultured using standard conditions in RPMI 1640 with 0.5% Albumax as described previously. EC₅₀ values were determined using a SYBR Green I fluorescence assay after 72 h of compound exposure. EC50 values were derived by nonlinear regression in GraphPad Prism version 10.

P. falciparum 3D7 = assay: as above; format: cell-based; settings: Plasmodium falciparum, mean (standard error) of 3 biological replicates
Method: as §7

P. falciparum K1 = assay: as above; format: cell-based; settings: Plasmodium falciparum, mean (standard error) of 3 biological replicates
Method: as §7

P. falciparum 7G8 = assay: as above; format: cell-based; settings: Plasmodium falciparum, mean (standard error) of 3 biological replicates
Method: as §7

P. falciparum Dd2-B2 = assay: as above; format: cell-based; settings: Plasmodium falciparum, mean (standard error) of 3 biological replicates
Method: as §7

PfPKG [4] = settings: cited from earlier work
[5] = system: P. falciparum CamWT and CamC580Y; settings: ring-stage assays; cited from earlier work
ROCK1 = molecular target: T1, ROCK1 (Homo sapiens, UniProt Q13464); assay: KdElect binding affinity assay; settings: for Kd for ROCK1 higher compared to RUPB-61: range over RUPB-8, -18, -34 and over ROCK1 and ROCK2; for Kd: read-out: ROCK1 Experimental Kd; for ROCK1 Experimental Binding (ΔG): ∆G = -RTln(Kd), 300K
T1 construct: purchased Eurofins (DiscoverX)
Method: (§8) Off-target kinase inhibition was assessed using the DiscoverX scanMAX (Eurofins) panel at 1 µM compound concentration. Binding affinities of CIT, ROCK1 and ROCK2 were evaluated using the KdElect assay (Eurofins).

CIT = molecular target: T2, CIT (Homo sapiens, UniProt O14578); assay: KdElect binding affinity assay; settings: for Kd for CIT higher compared to RUPB-61: range over RUPB-18, -34, -69; for Kd: read-out: CIT Experimental Kd
T2 construct: purchased Eurofins (DiscoverX)
Method: as §8

ROCK2 = molecular target: T3, ROCK2 (Homo sapiens, UniProt O75116); assay: KdElect binding affinity assay; settings: for Kd for ROCK2 higher compared to RUPB-61: range over RUPB-8, -18, -34 and over ROCK1 and ROCK2; for Kd: read-out: ROCK2 Experimental Kd
T3 construct: purchased Eurofins (DiscoverX)
Method: as §8

PfPKG [6] = molecular target: PfPKG (Plasmodium falciparum, UniProt Q8I719); assay: PfPKG enzyme inhibition; format: biochemical; settings: Table 7; spread in parentheses not defined

T1 sequence (Q13464 whole entry): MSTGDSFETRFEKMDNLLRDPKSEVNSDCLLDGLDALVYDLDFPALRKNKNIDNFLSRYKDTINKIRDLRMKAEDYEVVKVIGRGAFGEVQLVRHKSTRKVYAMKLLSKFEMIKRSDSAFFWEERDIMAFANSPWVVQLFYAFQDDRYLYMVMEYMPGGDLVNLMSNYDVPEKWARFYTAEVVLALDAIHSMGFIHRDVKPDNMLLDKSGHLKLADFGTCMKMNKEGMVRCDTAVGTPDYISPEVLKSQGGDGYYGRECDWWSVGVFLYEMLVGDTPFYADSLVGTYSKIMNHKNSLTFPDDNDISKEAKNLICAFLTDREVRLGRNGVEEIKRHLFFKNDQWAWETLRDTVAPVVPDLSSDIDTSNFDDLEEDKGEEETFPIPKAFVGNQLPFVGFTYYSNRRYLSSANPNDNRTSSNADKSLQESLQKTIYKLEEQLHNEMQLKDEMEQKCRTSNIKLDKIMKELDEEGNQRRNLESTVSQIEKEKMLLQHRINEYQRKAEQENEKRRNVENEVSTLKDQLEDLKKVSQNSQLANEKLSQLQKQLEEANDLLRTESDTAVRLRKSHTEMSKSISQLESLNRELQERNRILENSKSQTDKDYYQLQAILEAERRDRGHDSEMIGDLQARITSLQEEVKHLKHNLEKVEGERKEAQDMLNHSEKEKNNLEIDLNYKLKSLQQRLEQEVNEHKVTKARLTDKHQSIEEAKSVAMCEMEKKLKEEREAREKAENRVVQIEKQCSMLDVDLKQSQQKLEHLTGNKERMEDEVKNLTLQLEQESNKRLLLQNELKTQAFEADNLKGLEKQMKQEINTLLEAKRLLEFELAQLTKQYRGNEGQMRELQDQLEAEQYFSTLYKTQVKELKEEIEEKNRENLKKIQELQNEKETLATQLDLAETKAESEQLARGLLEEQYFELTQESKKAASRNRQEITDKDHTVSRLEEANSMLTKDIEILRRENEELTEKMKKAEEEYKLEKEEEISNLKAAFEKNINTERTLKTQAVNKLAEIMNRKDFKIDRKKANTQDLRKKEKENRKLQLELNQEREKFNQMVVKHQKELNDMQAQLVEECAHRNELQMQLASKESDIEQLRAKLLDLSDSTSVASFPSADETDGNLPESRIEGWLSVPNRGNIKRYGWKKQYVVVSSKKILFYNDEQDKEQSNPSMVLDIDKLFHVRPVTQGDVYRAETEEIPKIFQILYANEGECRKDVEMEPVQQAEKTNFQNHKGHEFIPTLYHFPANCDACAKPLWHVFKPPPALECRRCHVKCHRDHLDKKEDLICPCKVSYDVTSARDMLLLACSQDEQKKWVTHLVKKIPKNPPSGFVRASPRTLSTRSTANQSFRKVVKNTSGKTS
T2 sequence (O14578 whole entry): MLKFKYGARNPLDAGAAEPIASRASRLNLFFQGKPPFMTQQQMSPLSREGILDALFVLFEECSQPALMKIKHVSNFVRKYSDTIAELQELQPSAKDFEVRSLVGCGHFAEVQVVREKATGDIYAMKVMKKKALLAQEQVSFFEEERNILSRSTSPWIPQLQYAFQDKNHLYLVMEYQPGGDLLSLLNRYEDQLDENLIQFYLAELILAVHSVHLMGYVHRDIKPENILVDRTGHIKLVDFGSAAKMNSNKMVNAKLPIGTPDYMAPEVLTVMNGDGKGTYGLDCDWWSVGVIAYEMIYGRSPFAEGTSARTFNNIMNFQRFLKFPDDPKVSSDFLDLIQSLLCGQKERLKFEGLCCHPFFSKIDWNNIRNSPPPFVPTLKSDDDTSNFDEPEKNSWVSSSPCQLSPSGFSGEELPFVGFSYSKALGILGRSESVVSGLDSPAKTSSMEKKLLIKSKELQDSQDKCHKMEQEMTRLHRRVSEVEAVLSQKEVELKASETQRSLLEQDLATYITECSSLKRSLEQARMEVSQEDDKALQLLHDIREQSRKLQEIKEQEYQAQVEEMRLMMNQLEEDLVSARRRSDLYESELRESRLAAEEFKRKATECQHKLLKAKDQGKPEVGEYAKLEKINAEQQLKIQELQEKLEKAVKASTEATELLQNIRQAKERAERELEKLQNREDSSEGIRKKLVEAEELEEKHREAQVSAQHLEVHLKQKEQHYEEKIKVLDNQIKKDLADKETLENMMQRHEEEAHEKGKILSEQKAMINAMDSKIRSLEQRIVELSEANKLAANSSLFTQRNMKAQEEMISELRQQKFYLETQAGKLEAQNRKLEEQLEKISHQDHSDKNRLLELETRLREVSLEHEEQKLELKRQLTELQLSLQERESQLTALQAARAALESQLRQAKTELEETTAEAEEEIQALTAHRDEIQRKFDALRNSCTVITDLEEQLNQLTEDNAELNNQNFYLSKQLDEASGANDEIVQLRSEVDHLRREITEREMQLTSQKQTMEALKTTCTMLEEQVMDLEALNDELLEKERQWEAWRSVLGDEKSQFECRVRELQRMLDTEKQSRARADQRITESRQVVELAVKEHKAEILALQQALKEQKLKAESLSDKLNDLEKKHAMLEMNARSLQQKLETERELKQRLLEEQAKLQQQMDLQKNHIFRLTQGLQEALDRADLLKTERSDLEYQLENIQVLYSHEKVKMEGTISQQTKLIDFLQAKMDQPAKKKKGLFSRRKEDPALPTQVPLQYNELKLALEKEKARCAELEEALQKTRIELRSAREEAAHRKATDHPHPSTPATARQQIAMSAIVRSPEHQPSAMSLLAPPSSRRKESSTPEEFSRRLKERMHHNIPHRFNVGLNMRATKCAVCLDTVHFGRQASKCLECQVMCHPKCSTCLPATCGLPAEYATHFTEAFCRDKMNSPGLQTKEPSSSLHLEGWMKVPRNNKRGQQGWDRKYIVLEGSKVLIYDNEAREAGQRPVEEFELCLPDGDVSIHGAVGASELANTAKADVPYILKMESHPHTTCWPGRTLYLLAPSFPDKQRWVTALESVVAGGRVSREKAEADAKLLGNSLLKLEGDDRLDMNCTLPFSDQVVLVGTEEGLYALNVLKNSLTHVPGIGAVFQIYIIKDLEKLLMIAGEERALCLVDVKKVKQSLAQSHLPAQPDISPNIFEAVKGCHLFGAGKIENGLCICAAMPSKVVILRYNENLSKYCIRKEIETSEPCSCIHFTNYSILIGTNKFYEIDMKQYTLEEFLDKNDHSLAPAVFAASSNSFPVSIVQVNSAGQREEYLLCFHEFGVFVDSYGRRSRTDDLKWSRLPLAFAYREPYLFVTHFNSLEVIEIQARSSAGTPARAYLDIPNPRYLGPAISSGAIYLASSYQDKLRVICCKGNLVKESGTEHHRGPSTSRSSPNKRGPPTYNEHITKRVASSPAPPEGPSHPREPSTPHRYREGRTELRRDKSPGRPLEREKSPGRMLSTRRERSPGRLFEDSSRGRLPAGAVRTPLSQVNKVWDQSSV
T3 sequence (O75116 whole entry): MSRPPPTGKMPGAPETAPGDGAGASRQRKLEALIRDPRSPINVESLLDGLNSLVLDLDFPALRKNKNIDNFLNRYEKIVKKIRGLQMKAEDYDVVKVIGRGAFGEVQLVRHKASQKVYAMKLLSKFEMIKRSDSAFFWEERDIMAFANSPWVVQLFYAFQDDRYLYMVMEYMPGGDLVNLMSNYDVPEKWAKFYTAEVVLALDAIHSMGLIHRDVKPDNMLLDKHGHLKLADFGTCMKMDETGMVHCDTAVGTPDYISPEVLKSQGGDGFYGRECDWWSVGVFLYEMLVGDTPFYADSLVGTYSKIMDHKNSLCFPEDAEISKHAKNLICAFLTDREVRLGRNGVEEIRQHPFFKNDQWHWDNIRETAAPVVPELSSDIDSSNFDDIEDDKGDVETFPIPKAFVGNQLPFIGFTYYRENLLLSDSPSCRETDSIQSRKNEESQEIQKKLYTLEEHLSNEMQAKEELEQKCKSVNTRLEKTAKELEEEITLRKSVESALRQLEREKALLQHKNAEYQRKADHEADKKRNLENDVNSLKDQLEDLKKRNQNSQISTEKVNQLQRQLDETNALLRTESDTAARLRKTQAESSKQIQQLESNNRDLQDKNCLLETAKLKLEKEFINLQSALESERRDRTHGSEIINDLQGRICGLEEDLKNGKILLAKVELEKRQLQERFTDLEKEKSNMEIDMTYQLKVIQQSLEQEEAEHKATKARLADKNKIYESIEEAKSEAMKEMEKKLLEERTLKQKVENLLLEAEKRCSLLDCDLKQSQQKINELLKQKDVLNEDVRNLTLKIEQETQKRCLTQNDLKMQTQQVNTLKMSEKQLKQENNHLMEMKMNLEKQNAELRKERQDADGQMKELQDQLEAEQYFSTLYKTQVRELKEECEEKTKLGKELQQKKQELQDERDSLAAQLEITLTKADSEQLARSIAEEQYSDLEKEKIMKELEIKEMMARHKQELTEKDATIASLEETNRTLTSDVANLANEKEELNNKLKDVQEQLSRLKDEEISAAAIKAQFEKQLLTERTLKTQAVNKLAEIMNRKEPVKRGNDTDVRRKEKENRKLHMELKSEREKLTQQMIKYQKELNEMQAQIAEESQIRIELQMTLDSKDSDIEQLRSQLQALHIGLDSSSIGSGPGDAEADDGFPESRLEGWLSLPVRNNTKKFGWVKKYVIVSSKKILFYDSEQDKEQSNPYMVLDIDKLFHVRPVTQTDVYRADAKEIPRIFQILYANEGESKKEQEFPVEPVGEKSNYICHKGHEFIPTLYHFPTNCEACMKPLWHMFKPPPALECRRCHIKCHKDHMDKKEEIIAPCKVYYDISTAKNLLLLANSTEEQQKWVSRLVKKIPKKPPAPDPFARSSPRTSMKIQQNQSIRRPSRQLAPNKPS

SMILES: CNC(=O)c1ccc(-c2cnc3cnc(C(=O)N(C)c4ccc(Cl)cc4)cn23)cc1 [KDU-691]
- CC50 [1]: > 10000 nM
- CC50 [2]: > 10000 nM
- IC50 [3]: 51 nM
- IC50 (P. cynomolgi hypnozoite): 110 nM
- IC50 (P. cynomolgi schizont): 42 nM

SMILES: C[C@@H]1CN(C)CC[C@H]1c1cc(-c2ccncc2)c(-c2ccc(F)cc2)[nH]1.Cl.Cl [RUPB-60, 4-{5-[(3S,4R)-1,3-Dimethylpiperidin-4-yl]-2-(4-fluorophenyl)-1H-pyrrol-3-yl}pyridine Dihydrochloride]
- IC50 (P. falciparum TM90_C2B): 80 nM
- IC50 (P. falciparum 3D7): 50 nM
- IC50 (P. falciparum K1): 81 nM
- IC50 (P. falciparum 7G8): 28 nM
- IC50 (P. falciparum Dd2-B2): 144 nM
- IC50 against PfPKG variants, RUPB-60 compared with RUPB-61 (PfPKG [4]): similar
- IC50 against DHA-sensitive CamWT compared with DHA-resistant CamC580Y [5]: similar

SMILES: COc1ccc(-c2[nH]c(C3CCN(C)CC3)cc2-c2ccncc2)cc1 [RUPB-34]
- Kd for ROCK1 higher compared to RUPB-61 (ROCK1): 40–700 fold
- Kd (ROCK1): 9200 nM
- ROCK1 Experimental Binding (ΔG) (ROCK1): -6.9 kcal/mol
- Kd for CIT higher compared to RUPB-61 (CIT): 5–125 fold
- Kd (CIT): 620 nM
- Kd for ROCK2 higher compared to RUPB-61 (ROCK2): 40–700 fold
- Kd (ROCK2): 6400 nM

SMILES: C[C@H]1CN(C)CC[C@H]1c1cc(-c2ccncc2)c(-c2ccc(F)cc2)[nH]1.Cl.Cl [RUPB-58, 4-{5-[(3R,4R)-1,3-Dimethylpiperidin-4-yl]-2-(4-fluorophenyl)-1H-pyrrol-3-yl}pyridine Dihydrochloride]
- IC50 (P. falciparum TM90_C2B): 122 nM
- IC50 (P. falciparum 3D7): 170 nM
- IC50 (P. falciparum K1): 239 nM
- IC50 (P. falciparum 7G8): 57 nM
- IC50 (P. falciparum Dd2-B2): 467 nM
- IC50 against DHA-sensitive CamWT compared with DHA-resistant CamC580Y [5]: similar

SMILES: CN1CCC(c2[nH]c(-c3ccc(F)cc3)c(-c3ccncc3)c2C#N)CC1 [RUPB-18]
- Kd for ROCK1 higher compared to RUPB-61 (ROCK1): 40–700 fold
- Kd (ROCK1): 700 nM
- ROCK1 Experimental Binding (ΔG) (ROCK1): -8.4 kcal/mol
- Kd for CIT higher compared to RUPB-61 (CIT): 5–125 fold
- Kd (CIT): 25 nM
- Kd for ROCK2 higher compared to RUPB-61 (ROCK2): 40–700 fold
- Kd (ROCK2): 560 nM

SMILES: C[C@H]1CN(C)CC[C@@H]1c1cc(-c2ccncc2)c(-c2ccc(F)cc2)[nH]1.Cl.Cl [RUPB-59, 4-{5-[(3R,4S)-1,3-Dimethylpiperidin-4-yl]-2-(4-fluorophenyl)-1H-pyrrol-3-yl}pyridine Dihydrochloride]
- IC50 (P. falciparum TM90_C2B): 120 nM
- IC50 (P. falciparum 3D7): 80 nM
- IC50 (P. falciparum K1): 148 nM
- IC50 (P. falciparum 7G8): 135 nM
- IC50 (P. falciparum Dd2-B2): 353 nM
- IC50 against DHA-sensitive CamWT compared with DHA-resistant CamC580Y [5]: similar

SMILES: CCC(O)(CC)c1cc(-c2[nH]c(C3CCN(C)CC3)cc2-c2ccncc2)ccc1F [RUPB-73, 3-(2-Fluoro-5-(5-(1-methylpiperidin-4-yl)-3-(pyridin-4-yl)-1H-pyrrol-2-yl)phenyl)pentan-3-ol]
- IC50 (PfPKG [6]): 256 nM
